The record followed here is ChEMBL document CHEMBL1133248, “Synthesis and biological activity of phenoxyphenyl oxamic acid derivatives related to L-thyronine” (Bioorg Med Chem Lett, 2000).

Molecules are shown by their SMILES.

The nature of assay [1]: Inhibition of [125I]L-T3 binding to rat hepatic 3,5,3''-triiodo-L-thyronine receptor.
For assay [2], the system named is Rattus norvegicus. Briefly: Atrial tension was determined after administration to rats at 25 mg/kg for 7 days at 40 pulse/min.
The subject of assay [3] is Rattus norvegicus. Briefly: Heart rate was determined after administration to rats at 25 mg/kg perorally for 7 days (in vivo on cardiovascular activity).
The subject of assay [4] is Rattus norvegicus. Kind of assay: Heart weight was determined after administration to rats at 25 mg/kg perorally for 7 days (in vivo on cardiovascular activity).
Assay [5] concerns Rattus norvegicus. Briefly: Atrial tension was determined after administration to rats at 25 mg/kg for 7 days at 20 pulse/min.
Assay [6] deals with Rattus norvegicus. Kind of assay: Heart weight was determined after administration to rats at 100 ug/Kg perorally for 7 days (in vivo on cardiovascular activity). The assay is classed as functional.
Assay [7] concerns Rattus norvegicus. Kind of assay: Atrial tension was determined after administration to rats at 100 ug/Kg for 7 days at 20 pulse/min. The assay is classed as functional, Cardiac atrium.
The subject of assay [8] is Rattus norvegicus. Briefly: Heart rate was determined after administration to rats at 100 ug/Kg perorally for 7 days (in vivo on cardiovascular activity). The assay is classed as functional.
Assay [9] concerns Rattus norvegicus. Briefly: Atrial tension was determined after administration to rats at 100 ug/Kg for 7 days at 40 pulse/min. The assay is classed as functional, Cardiac atrium.

In assay [1], `Cc1cc(NC(=O)C(=O)O)cc(C)c1Oc1cccc(-c2ccccc2)c1` had a 50% inhibitory concentration (IC50) of 32 nM.
In assay [1], `Cc1cc(NC(=O)C(=O)O)cc(C)c1Oc1ccc(O)c(-c2cccc(Cl)c2)c1` showed an IC50 of 0.64 nM.
On the same count and under the same terms, in the case of `Cc1cc(NC(=O)C(=O)O)cc(C)c1Oc1ccc(O)c(-c2ccccc2Cl)c1` it was 0.17 nM.
Molecule `CCc1cc(Oc2c(C)cc(NC(=O)C(=O)O)cc2C)ccc1O` displayed a half-inhibitory concentration (IC50) in assay [1] of 0.25 nM.
With `Cc1cc(NC(=O)C(=O)O)cc(C)c1Oc1ccc(O)c(C2CCCCC2)c1`, the Developed tension with Rattus norvegicus [2] amounted to 12.6%; in the assay with Rattus norvegicus [5], 7.6%. The Heart rate in the assay with Rattus norvegicus [3] turned out to be 6.3. The same molecule displayed a half-inhibitory concentration (IC50) in assay [1] of 2.2 nM. In the assay on Rattus norvegicus [4], this molecule returned a Heart weight of 4.4.
In [1], `Cc1cc(NC(=O)C(=O)O)cc(C)c1Oc1ccc(O)c(-c2ccccc2)c1` returned an IC50 of 1.9 nM. Moreover, the Developed tension in the assay with Rattus norvegicus [5] amounted to 3.7%.
In the case of `Cc1cc(Oc2c(C)cc(NC(=O)C(=O)O)cc2C)ccc1O`, the IC50 in [1] worked out at 5.4 nM.
Still for that read-out and setting: in the case of `Cc1cc(NC(=O)C(=O)O)cc(C)c1S(=O)(=O)c1ccc(O)c(C2CCCCC2)c1` it was 1.9 nM.
Regarding `Cc1cc(NC(=O)C(=O)O)cc(C)c1Sc1ccc(O)c(C2CCCCC2)c1`, in assay [1], the IC50 is 2 nM.
Consider `Cc1cc(NC(=O)C(=O)O)cc(C)c1Oc1ccc(O)c(-c2cccc(C(F)(F)F)c2)c1`, for which, in assay [1], the IC50 was determined as 0.92 nM.
Regarding `Cc1cc(NC(=O)C(=O)O)cc(C)c1Oc1ccc(O)c(-c2ccc(C(F)(F)F)cc2)c1`, the IC50 in assay [1] came to 14 nM.
As for `Cc1cc(NC(=O)C(=O)O)cc(C)c1Oc1ccc(O)c(-c2cccc(F)c2)c1`, in assay [1], the half-maximal inhibitory concentration (IC50) is 1.9 nM.
In turn, `Cc1ccc(-c2cc(Oc3c(C)cc(NC(=O)C(=O)O)cc3C)ccc2O)cc1` yielded a half-maximal inhibitory concentration (IC50) in [1] of 9 nM.
On to `N[C@@H](Cc1cc(I)c(Oc2ccc(O)c(I)c2)c(I)c1)C(=O)O` [LIOTHYRONINE], for which, in the assay with Rattus norvegicus [6], the Heart weight stood at 38.9. Moreover, the Developed tension in the assay on Rattus norvegicus [7] came to 18.2%; with Rattus norvegicus [9], 12.7%. In addition, the Heart rate with Rattus norvegicus [8] stood at 52.5.

As a reminder, the IC50 is the midpoint of a concentration-inhibition curve. Lower therefore signals greater potency in that assay.
